Where only a bound is given, the exact number is not on record here.

The IC50 is the concentration at which inhibition is half-maximal. The low end stands for greater potency in that assay, the high end for weaker potency in that assay.

Assay [1] deals with T1, RORγt ligand-binding domain (RORγt-LBD) (Homo sapiens, UniProt P51449).
T1 construct: 20 nM recombinantly expressed RORγ-LBD fused to GST
T1 sequence (P51449 269-508 limits assumed): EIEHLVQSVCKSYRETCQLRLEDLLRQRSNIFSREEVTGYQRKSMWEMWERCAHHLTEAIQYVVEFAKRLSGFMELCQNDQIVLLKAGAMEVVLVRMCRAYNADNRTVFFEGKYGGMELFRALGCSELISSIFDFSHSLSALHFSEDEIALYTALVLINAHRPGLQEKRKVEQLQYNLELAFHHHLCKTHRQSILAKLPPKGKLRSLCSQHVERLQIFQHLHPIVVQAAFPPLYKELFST
In words: Time-resolved FRET (TR-FRET) RORγt coactivator assay. Particulars: GST-RORγ-LBD, biotinylated RIP140 peptide, 2 hours at room temperature. The method in brief: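 GST-tagged RORγt-LBD (20 nM) with 30 nM biotinylated RIP140-derived peptide, streptavidin-terbium and d2 anti-GST in CHAPS buffer (1 mM DTT, 2 mM EDTA, 0.1% BSA), 1% DMSO. Compounds at 0.3 nM–30 μM final, equilibrated 2 h, room temperature, dark. Coactivator displacement lowers the TR-FRET signal; IC50 (μM) and Emax (%) reported.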

The subject of the next assay is MPO activity. Kind of assay: MPO activity in ear skin homogenates of the IMQ induced psoriasis study. Type of assay: in vivo, C57BL/6 female mice. Particulars: 30 mpk oral, in comparison with IMQ-vehicle group. On the procedure: 8-10 weeks C57BL/6 female mice received a daily topical dose of 62.5 mg/mouse IMQ cream (Aldara® cream 5%; 3M pharmaceuticals, Sweden) on the shaved back and the right ear for 7 consecutive days. Control mice were treated similarly with a control vehicle cream (Vaseline). Test compound (Cpd 24) was orally administered daily from day 0 to day 7 at 3 mg/mL (30 mg/kg). Test compound was given 8 hours before IMQ application. Mice were killed at day 7, 4 h after the last test compound treatment to analyse skin inflammation parameters.
Ear skin tissue were homogenized in PBS containing a protease inhibitor cocktail (P8340, Sigma-Aldrich) by Ultra Turrax, centrifuged and the supernatant was discarded. The pellet was resuspended in 0.5 mL PBS containing 0.5% hexadecyltrimethyl ammonium bromide (HTAB) and 5 mM ethylene-diamine tetra-acetic acid (EDTA). Following centrifugation, 100 μL of supernatants were placed in test tubes with 200 μL PBS-HTAB-EDTA, 1 mL Hanks' balanced salt solution (HBSS), 100 μL of o-dianisidine dihydrochloride (1.25 mg/mL), and 100 μL H2O2 0.05%. […] The MPO activity was determined as absorbance at 460 nm in comparison with medium.
Statistical evaluation of differences between the experimental groups was determined by using two-way Anova followed by a Bonferroni post test. *** p<0.001, IMQ-Vehicle compared with treatment.

A further assay has as its system MOG-induced EAE mice. Kind of assay: Experimental Autoimmune Encephalomyelitis (EAE) study. It counts as in vivo, C57BL/6 mice. An excerpt:
8-10 week old, female C57BL/6 mice were purchased from Janvier Lab (St Berthevin, France) and housed for one week before the start of the studies. EAE was induced by immunization with an emulsion of peptide antigen MOG35-55 (Myelin Oligodendrocyte Glycoprotein) ([…], SEQ ID NO: 1) in complete Freund's Adjuvant (CFA), followed by administration of Pertussis Toxin (PTX) in PBS on the day of immunization and day 1 post immunization, following manufacturer recommendation (Hooke, Kit MOG35-55/CFA Emulsion PTX). Animals were treated with drug beginning 2 days before peptide injection. Animals were randomized into groups for treatment by weight, so that the average weight of each group was similar. The groups were segregated by cage. Compounds according to the invention were suspended in Labrafil (M1944 CS) by sonication and animals were dosed twice daily by gavage with 5 mL/kg body weight. The daily doses of Cpd.24 were 30 and 60 mg/kg (b.i.d.) by gavage. […]
Data are expressed as (FIG. 4A) mean (+/−SEM) of clinical score for each group per day and (FIG. 4B). […]
Statistical evaluation of differences between the experimental groups was determined by using two-way Anova followed by a Bonferroni post test. **p<0.005, Vehicle compared with treatments.

The compound `Cc1ccc(C(NC(=O)Cc2ccc3c(c2)CC(=O)N3)c2ccc(C)o2)c(N2CCCCC2)c1` (stereo not shown) [Cpd. 24, N-{[4-methyl-2-(piperidin-1-yl)phenyl](5-methylfuran-2-yl)methyl}-2-(2-oxo-2,3-dihydro-1H-indol-5-yl)acetamide] had a half-maximal inhibitory concentration (IC50) in assay [1] of under 10 nM. In addition, the “MPO activity in ear homogenates” value in the assay with MPO activity was “reduced MPO activity”. In the assay with MOG-induced EAE mice (by day 15 and maintained through in vivo protocol duration), the clinical disease score result is “Clinical disease score improvement was apparent”. Further, the “onset of EAE” value in the assay on MOG-induced EAE mice (p/os at 60 mg/kg (b.i.d.) for 20 days) is recorded as “delay the onset of EAE”.
